Laboratory results taken from US20230263712A1, “AN ORAL CARE ANTIMICROBIAL COMPOSITION, PROCESS FOR PREPARING THE SAME AND METHOD OF USE THEREOF” (ISP INVESTMENTS LLC, priority 2020, published 2023).
Where two headings read alike, the source gives them in different places. Values belong to the compound of their own block, whether it stands above or below them.

Tested on: Streptococcus mutans UA159
Test: Checkerboard microplate synergy assay (MIC, Synergy Index by the Kull method)
Format: cell-based
Details: for HPB Qa: MIC of compound A (HPB) when used in combination with compound B: HPB concentration in the combination with the labelled compound B; for SI index (Synergy Index = Qa/QA + Qb/QB): combination of HPB (raspberry ketone) with the labelled compound B, SI <1 synergistic
Description: The synergistic antimicrobial effect was determined using the commonly accepted method described by Kull […]. and Mayer, R. L. 1961. Applied Microbiology, 9:538-541 Brief description of the assay: Standard checkerboard approach was used to make all the dilutions. HPB (compound A) solution was prepared in DMSO and then serially diluted using a 96-well dilution plate. Automated liquid handler was then used to stamp multiple assay plates out of this dilution plate. Each well of the assay plate was then supplemented with a predetermined concentration of the second antimicrobial (compound B). The final concentration of DMSO was kept constant across the plate for each assay, not exceeding 3% (w/w). Then, S. mutans cell suspension in Todd Hewitt Broth supplemented with yeast extract (THYEB) was added to the appropriate wells of the assay plate with the final cell density being 10^6 cfu/ml. The assay plates were incubated for 48 hours at 37° C. in the atmosphere containing 5% CO2 prior to being evaluated. The lowest concentration of each compound (or a mixture of the two compounds) to inhibit visible growth was taken as the minimum inhibitory concentration (MIC). The MIC was taken as the end point of activity. End points for the combination of compound A (HPB) and compound B were then compared to the end points for each compound being used individually.

[1] = S. mutans, THYEB, 48 hours at 37° C., 5% CO2
[2] = Streptococcus mutans, UA159, S. mutans, THYEB, 48 hours at 37° C., 5% CO2, alone, read-out: Compound B QB: MIC of compound B acting alone

Compound: N=C(NCCCCCCNC(=N)NC(=N)Nc1ccc(Cl)cc1)NC(=N)Nc1ccc(Cl)cc1.O=C(O)[C@H](O)[C@@H](O)[C@H](O)[C@H](O)CO.O=C(O)[C@H](O)[C@@H](O)[C@H](O)[C@H](O)CO [Chlorhexidine digluconate]
HPB Qa: MIC of compound A (HPB) when used in combination with compound B [1]: 4,000 ppm | Compound B QB: MIC of compound B acting alone (S. mutans, THYEB, 48 hours at 37° C., 5% CO2, alone): 1.6 ppm | Compound B Qb: MIC of compound B when used in combination with compound A (HPB) [1]: 0.4 ppm | SI index (Synergy Index = Qa/QA + Qb/QB) (S. mutans): ≤0.75

Compound: Cc1cc(O)ccc1C(C)C [Isopropyl Methylphenol (IPMP), 4-isopropyl-3-methyl phenol]
HPB Qa: MIC of compound A (HPB) when used in combination with compound B [1]: 125 ppm | Compound B Qb: MIC of compound B when used in combination with compound A (HPB) [1]: 250 ppm | SI index (Synergy Index = Qa/QA + Qb/QB) (S. mutans): ≤0.5016 | SI index (Synergy Index = Qa/QA + Qb/QB) (S. mutans, listed as IPMP): ≤ 0.5016 | MIC [2]: 500 µg/mL

Compound: CC1CCC(C(C)C)C(O)C1 (centres unmarked) [Menthol]
HPB Qa: MIC of compound A (HPB) when used in combination with compound B [1]: 4,000 ppm | Compound B Qb: MIC of compound B when used in combination with compound A (HPB) [1]: 1,000 ppm | MIC [2]: ≥ 4000 µg/mL

Compound: CC(=O)CCc1ccc(O)cc1 [HPB, 4-(4-hydroxyphenyl) butan-2-one]
MIC (Streptococcus mutans, UA159, S. mutans, THYEB, 48 hours at 37° C., 5% CO2, alone, read-out: HPB QA: MIC of compound A (HPB) acting alone): ≥ 8000 µg/mL

Now from value to compound, other results behind:

HPB Qa: MIC of compound A (HPB) when used in combination with compound B [1]: 4,000 ppm | Compound B Qb: MIC of compound B when used in combination with compound A (HPB) [1]: 15.6 ppm | MIC [2]: 125 µg/mL
Compound: Cc1ccc(C(C)C)c(O)c1 [Thymol]
SI index (Synergy Index = Qa/QA + Qb/QB) (S. mutans): ≤0.625 | SI index (Synergy Index = Qa/QA + Qb/QB) (S. mutans, listed as thymol): ≤ 0.625

MIC (alone, even when solubilized with 2% of Pluronic F-127): > 2%
Compound: CC12CCC(CC1)C(C)(C)O2 [eucalyptol]
Synergy with raspberry ketone (HPB) (standard synergy assay vs S. mutans): not detected
